In ChEMBL document CHEMBL5724914, “Linking interpersonal differences in gut microbiota composition and drug biotransformation activity” (2024):

Experiments:
[1] = human gut metagenome, 24 h, 2 µM
[2] = human gut metagenome, 24 h, 2 µM; remark: listed apart in the source
[3] = The drug is tested on Z-017 corresponding to mouse gut metagenome with ENA study accession number: PRJEB37062 and ENA sample accession number: ERS12561816 for biotransformation under anaerobic condition. The drug concentrations were measured over 9 timepoints collected between 0 and 24 hours of incubation by liquid-chromatography-coupled mass spectrometry (LC–MS); details: 2 µM
[4] = The drug is tested on Z-010 corresponding to metagenome with ENA study accession number: PRJEB37062 and ENA sample accession number: ERS12561810 for biotransformation under anaerobic condition. The drug concentrations were measured over 9 timepoints collected between 0 and 24 hours of incubation by liquid-chromatography-coupled mass spectrometry (LC–MS); details: 2 µM
[5] = human gut metagenome, 24 h, 2 µM; remark: listed apart in the source
[6] = human gut metagenome, 24 h, 2 µM; remark: listed apart in the source
[7] = The drug is tested on Z-001 corresponding to mouse gut metagenome with ENA study accession number: PRJEB37062 and ENA sample accession number: ERS12561801 for biotransformation under anaerobic condition. The drug concentrations were measured over 9 timepoints collected between 0 and 24 hours of incubation by liquid-chromatography-coupled mass spectrometry (LC–MS); details: 2 µM
[8] = The drug is tested on WLS-350 corresponding to human gut metagenome with ENA study accession number: PRJEB37062 and ENA sample accession number: ERS12561789 for biotransformation under anaerobic condition. The drug concentrations were measured over 9 timepoints collected between 0 and 24 hours of incubation by liquid-chromatography-coupled mass spectrometry (LC–MS); details: 2 µM
[9] = human gut metagenome, 24 h, 2 µM; remark: listed apart in the source
[10] = The drug is tested on WLS-073 corresponding to human gut metagenome with ENA study accession number: PRJEB37062 and ENA sample accession number: ERS12561749 for biotransformation under anaerobic condition. The drug concentrations were measured over 9 timepoints collected between 0 and 24 hours of incubation by liquid-chromatography-coupled mass spectrometry (LC–MS); details: 2 µM
[11] = The drug is tested on WLS-086 corresponding to human gut metagenome with ENA study accession number: PRJEB37062 and ENA sample accession number: ERS12561752 for biotransformation under anaerobic condition. The drug concentrations were measured over 9 timepoints collected between 0 and 24 hours of incubation by liquid-chromatography-coupled mass spectrometry (LC–MS); details: 2 µM
[12] = The drug is tested on WLS-038 corresponding to human gut metagenome with ENA study accession number: PRJEB37062 and ENA sample accession number: ERS12561745 for biotransformation under anaerobic condition. The drug concentrations were measured over 9 timepoints collected between 0 and 24 hours of incubation by liquid-chromatography-coupled mass spectrometry (LC–MS); details: 2 µM
[13] = human gut metagenome, 24 h, 2 µM; remark: listed apart in the source
[14] = The drug is tested on Z-024 corresponding to pig gut metagenome with ENA study accession number: PRJEB37062 and ENA sample accession number: ERS12561823 for biotransformation under anaerobic condition. The drug concentrations were measured over 9 timepoints collected between 0 and 24 hours of incubation by liquid-chromatography-coupled mass spectrometry (LC–MS); details: 2 µM
[15] = The drug is tested on WLS-220 corresponding to human gut metagenome with ENA study accession number: PRJEB37062 and ENA sample accession number: ERS12561769 for biotransformation under anaerobic condition. The drug concentrations were measured over 9 timepoints collected between 0 and 24 hours of incubation by liquid-chromatography-coupled mass spectrometry (LC–MS); details: 2 µM
[16] = human gut metagenome, 24 h, 2 µM; remark: listed apart in the source
[17] = The drug is tested on WLS-052 corresponding to human gut metagenome with ENA study accession number: PRJEB37062 and ENA sample accession number: ERS12561747 for biotransformation under anaerobic condition. The drug concentrations were measured over 9 timepoints collected between 0 and 24 hours of incubation by liquid-chromatography-coupled mass spectrometry (LC–MS); details: 2 µM
[18] = human gut metagenome, 24 h, 2 µM; remark: listed apart in the source
[19] = human gut metagenome, 24 h, 2 µM; remark: listed apart in the source
[20] = The drug is tested on Z-009 corresponding to pig gut metagenome with ENA study accession number: PRJEB37062 and ENA sample accession number: ERS12561809 for biotransformation under anaerobic condition. The drug concentrations were measured over 9 timepoints collected between 0 and 24 hours of incubation by liquid-chromatography-coupled mass spectrometry (LC–MS); details: 2 µM
Also: call rule not given here.

Compound | Bacterial Biotransformation [1] | Bacterial Biotransformation [2] | Bacterial Biotransformation [3] | Bacterial Biotransformation [4] | Bacterial Biotransformation [5] | Bacterial Biotransformation [6] | Bacterial Biotransformation [7] | Bacterial Biotransformation [8] | Bacterial Biotransformation [9] | Bacterial Biotransformation [10] | Bacterial Biotransformation [11] | Bacterial Biotransformation [12] | Bacterial Biotransformation [13] | Bacterial Biotransformation [14] | Bacterial Biotransformation [15] | Bacterial Biotransformation [16] | Bacterial Biotransformation [17] | Bacterial Biotransformation [18] | Bacterial Biotransformation [19] | Bacterial Biotransformation [20]
CCCCC(=O)N(Cc1ccc(-c2ccccc2-c2nnn[nH]2)cc1)[C@H](C(=O)O)C(C)C | Compound metabolized | Compound metabolized | Compound NOT metabolized | Compound NOT metabolized | Compound metabolized | Compound metabolized | Compound NOT metabolized | Compound metabolized | Compound metabolized | Compound NOT metabolized | Compound metabolized | Compound metabolized | Compound metabolized | Compound NOT metabolized | Compound NOT metabolized | Compound metabolized | Compound metabolized | Compound metabolized | Compound metabolized | Compound NOT metabolized
CC(O)(CS(=O)(=O)c1ccc(F)cc1)C(=O)Nc1ccc(C#N)c(C(F)(F)F)c1 (stereo not drawn) [BICALUTAMIDE] | Compound NOT metabolized | Compound NOT metabolized | Compound NOT metabolized | Compound NOT metabolized | Compound NOT metabolized | Compound NOT metabolized | Compound NOT metabolized | Compound NOT metabolized | Compound NOT metabolized |  | Compound NOT metabolized | Compound NOT metabolized | Compound NOT metabolized | Compound NOT metabolized | Compound NOT metabolized | Compound NOT metabolized | Compound NOT metabolized | Compound NOT metabolized | Compound NOT metabolized | Compound NOT metabolized
CCCCCCOC(=O)/N=C(/N)c1ccc(NCc2nc3cc(C(=O)N(CCC(=O)OCC)c4ccccn4)ccc3n2C)cc1.CS(=O)(=O)O [DABIGATRAN ETEXILATE MESYLATE] |  |  | Compound NOT metabolized | Compound NOT metabolized |  | Compound NOT metabolized | Compound NOT metabolized | Compound NOT metabolized | Compound NOT metabolized |  |  |  |  | Compound NOT metabolized |  |  |  |  |  | Compound NOT metabolized
C[C@@H]1C[C@H]2[C@@H]3CCC4=CC(=O)C=C[C@]4(C)[C@@]3(F)[C@@H](O)C[C@]2(C)[C@@]1(O)C(=O)CO [DEXAMETHASONE] | Compound NOT metabolized | Compound NOT metabolized | Compound NOT metabolized | Compound NOT metabolized | Compound NOT metabolized | Compound NOT metabolized | Compound NOT metabolized | Compound NOT metabolized | Compound NOT metabolized | Compound NOT metabolized | Compound metabolized | Compound NOT metabolized | Compound NOT metabolized | Compound metabolized | Compound NOT metabolized | Compound NOT metabolized | Compound NOT metabolized | Compound NOT metabolized | Compound NOT metabolized | 
O=c1[nH]c2ccccc2n1CCCN1CCC(n2c(=O)[nH]c3cc(Cl)ccc32)CC1 [DOMPERIDONE] | Compound NOT metabolized | Compound NOT metabolized | Compound NOT metabolized | Compound NOT metabolized | Compound NOT metabolized |  | Compound NOT metabolized | Compound NOT metabolized | Compound NOT metabolized | Compound NOT metabolized | Compound metabolized | Compound NOT metabolized | Compound NOT metabolized | Compound NOT metabolized | Compound NOT metabolized | Compound NOT metabolized | Compound NOT metabolized | Compound NOT metabolized | Compound NOT metabolized | Compound NOT metabolized
COC(=O)[C@H]1[C@H]2C[C@@H]3c4[nH]c5cc(OC)ccc5c4CCN3C[C@H]2C[C@@H](OC(=O)c2cc(OC)c(OC)c(OC)c2)[C@@H]1OC [RESERPINE] |  | Compound NOT metabolized | Compound NOT metabolized | Compound NOT metabolized | Compound NOT metabolized | Compound NOT metabolized | Compound NOT metabolized | Compound NOT metabolized | Compound NOT metabolized | Compound NOT metabolized | Compound metabolized | Compound NOT metabolized | Compound metabolized | Compound NOT metabolized |  | Compound NOT metabolized | Compound NOT metabolized | Compound metabolized | Compound NOT metabolized | Compound NOT metabolized
